Residue numbers refer to the chain shown, from its start. Entries after “also recorded” stand apart in the source; their conditions may differ.
What was measured:
HA-RXFP3 E77A = target: T1, HA-RXFP3 E77A (Homo sapiens, UniProt Q9NSD7, E77A); assay: Competition binding with Eu-H3/I5, HA-RXFP3 E77A
T1 construct: expressed in transfected cells; host or cells: HEK-293T
T1 sequence (Q9NSD7 2-469 E77A limits assumed): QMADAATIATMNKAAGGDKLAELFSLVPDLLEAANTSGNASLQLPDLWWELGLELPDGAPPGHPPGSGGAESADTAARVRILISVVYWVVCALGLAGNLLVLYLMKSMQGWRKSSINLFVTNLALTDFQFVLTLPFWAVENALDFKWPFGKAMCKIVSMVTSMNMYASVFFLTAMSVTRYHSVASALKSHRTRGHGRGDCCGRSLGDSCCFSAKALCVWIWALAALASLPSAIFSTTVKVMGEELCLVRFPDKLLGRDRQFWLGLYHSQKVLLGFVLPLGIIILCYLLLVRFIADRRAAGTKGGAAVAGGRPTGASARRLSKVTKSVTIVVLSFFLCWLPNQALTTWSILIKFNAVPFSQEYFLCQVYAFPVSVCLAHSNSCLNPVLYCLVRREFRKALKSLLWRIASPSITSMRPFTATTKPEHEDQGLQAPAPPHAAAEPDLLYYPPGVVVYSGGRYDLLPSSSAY
Experimental: (§1) PCR reactions and cloning were undertaken as previously described ([Scott et al., 2006], [2012]).
(§2) The same protocol was used to prepare DNA templates of all Glu/Asp to Ala mutants, entailing a single codon change except for D47A/E51A, E55A/D58A, and E141A/D145A which required a double codon change both to Ala. The forward and reverse primers for all mutants are listed in Table 1 and mutagenesis reactions on pcDNA3.1zeo (+)-HA-RXFP3 were performed as previously described ([Scott et al., 2006]; [Yan et al., 2008]). […]
(§3) HEK-293T cells were transfected in 96 well optiplates (Perkin Elmer) with plasmids encoding the constructs of interest and Eu-H3/I5 binding assays conducted as described previously ([Luo et al., 2010]; [Haugaard-Kedstrom et al., 2011]). […] Binding data are expressed as mean ± standard error of mean (SEM) of % specific binding of triplicate measurements pooled from at least three independent experiments. Data were analyzed using Graphpad PRISM (Graphpad Inc.) and a non-linear regression one-site binding model was used to plot curves and calculate pIC50 values. […] The HA epitope was detected using a purified mouse monoclonal anti-HA antibody [HA.11(16B12), Covance] and a Alexafluor488-labeled goat anti mouse IgG (Invitrogen) in cell surface expression assays that were performed in 24 well plates as previously described ([Yan et al., 2008]). […]

HA-RXFP3 E55A/D58A = target: T2, HA-RXFP3 E55A/D58A (Homo sapiens, UniProt Q9NSD7, D58A/E55A); assay: Competition binding with Eu-H3/I5, HA-RXFP3 E55A/D58A
T2 construct: expressed in transfected cells; host or cells: HEK-293T
T2 sequence (Q9NSD7 2-469 E55A/D58A limits assumed): T1 sequence (Q9NSD7 2-469 E77A limits assumed) with E54A, D57A, A76E
Experimental: as §1, §2, §3

HA-RXFP3 ∆1–33 = target: T3, HA-RXFP3 ∆1–33 (Homo sapiens, UniProt Q9NSD7); assay: Competition binding with Eu-H3/I5, HA-RXFP3 ∆1–33
T3 construct: expressed in transfected cells; host or cells: HEK-293T
T3 sequence (Q9NSD7 34-469): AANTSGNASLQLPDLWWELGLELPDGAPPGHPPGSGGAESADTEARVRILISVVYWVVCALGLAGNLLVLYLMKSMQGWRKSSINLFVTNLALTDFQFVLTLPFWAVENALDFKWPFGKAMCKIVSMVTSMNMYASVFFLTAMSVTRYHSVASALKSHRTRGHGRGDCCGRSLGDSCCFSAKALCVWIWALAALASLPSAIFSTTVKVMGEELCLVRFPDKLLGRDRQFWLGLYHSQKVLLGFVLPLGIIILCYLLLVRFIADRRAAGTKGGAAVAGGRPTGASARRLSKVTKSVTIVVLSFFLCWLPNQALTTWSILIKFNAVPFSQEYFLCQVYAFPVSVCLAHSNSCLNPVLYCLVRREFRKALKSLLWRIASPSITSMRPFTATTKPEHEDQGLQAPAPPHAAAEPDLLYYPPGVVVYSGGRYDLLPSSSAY
Text: as §1
A pcDNA3.1zeo (+) vector with a start codon and HA tag (pcDNA3.1zeo (+)-HA) was produced by ligating a double stranded primer containing a BamHI site at the 5′ end followed by a start codon and HA tag and then a EcoRV blunt site at the 3′ end (Table 2) into a pcDNA3.1zeo (+) vector cut with BamHI and EcoRV. […]
HEK-293T cells were transfected in 96 well optiplates (Perkin Elmer) with plasmids encoding the constructs of interest and Eu-H3/I5 binding assays conducted as described previously ([Luo et al., 2010]; [Haugaard-Kedstrom et al., 2011]). […] Binding data are expressed as mean ± standard error of mean (SEM) of % specific binding of triplicate measurements pooled from at least three independent experiments. Data were analyzed using Graphpad PRISM (Graphpad Inc.) and a non-linear regression one-site binding model was used to plot curves and calculate pIC50 values. […] The HA epitope was detected using a purified mouse monoclonal anti-HA antibody [HA.11(16B12), Covance] and a Alexafluor488-labeled goat anti mouse IgG (Invitrogen) in cell surface expression assays that were performed in 24 well plates as previously described ([Yan et al., 2008]). […] Pooled data were analyzed using one-way ANOVA coupled to Newman–Keuls multiple comparison test for multiple group comparison.

## CC[C@H](C)[C@@H]1NC(=O)[C@H](Cc2ccccc2)NC(=O)[C@H](CCC(=O)O)NC(=O)[C@H](CCCNC(=N)N)NC(=O)CNC(=O)[C@@H](NC(=O)[C@H](CC(C)C)NC(=O)[C@H](CCCNC(=N)N)NC(=O)[C@@H](NC(=O)CNC(=O)[C@H](Cc2ccc(O)cc2)NC(=O)[C@@H]2CCCN2C(=O)[C@H](C)NC(=O)[C@H](C)NC(=O)[C@@H](N)CCCNC(=N)N)C(C)C)CSSC[C@@H]2NC(=O)[C@@H](NC(=O)[C@H](CO)NC(=O)[C@H](CO)NC(=O)[C@H](CO)NC(=O)[C@H](CC(C)C)NC(=O)CNC(=O)[C@H](C)NC(=O)[C@H](CC(C)C)NC(=O)[C@@H](NC(=O)[C@@H](N)CC(=O)O)C(C)C)CSSC[C@H](NC(=O)CNC(=O)[C@H](Cc3c[nH]c4ccccc34)NC(=O)[C@H](CCCCN)NC2=O)C(=O)N[C@@H](CO)C(=O)N[C@@H](CCCCN)C(=O)N[C@@H](CO)C(=O)N[C@@H](CCC(=O)O)C(=O)N[C@@H]([C@@H](C)CC)C(=O)N[C@@H](CO)C(=O)N[C@@H](CO)C(=O)N[C@@H](CC(C)C)C(=O)N[C@H](C(=O)O)CSSC[C@@H](C(=O)NCC(=O)NCC(=O)N[C@@H](CO)C(=O)N[C@@H](CCCNC(=N)N)C(=O)N[C@@H](Cc2c[nH]c3ccccc23)C(=O)O)NC(=O)[C@H]([C@@H](C)O)NC(=O)[C@H](Cc2ccccc2)NC(=O)[C@H]([C@@H](C)CC)NC(=O)[C@H](C(C)C)NC(=O)[C@H](C)NC(=O)[C@H](CCCNC(=N)N)NC1=O [H3 relaxin]
HA-RXFP3 E77A
  IC50: 0.0316 µM
HA-RXFP3 E77A; competition binding, p > 0.05
  affinity compared with HA-RXFP3: slightly lower H3 relaxin binding affinity but this was not significantly different from HA-RXFP3; also recorded: no significant difference in H3 relaxin affinity; also recorded: did not show a significant drop in binding
HA-RXFP3 E55A/D58A
  IC50: 0.00933 µM
HA-RXFP3 E55A/D58A; competition binding, p > 0.05
  affinity compared with HA-RXFP3: not significantly different from HA-RXFP3
HA-RXFP3 ∆1–33
  IC50: 0.0148 µM
HA-RXFP3 ∆1–33; vs HA-RXFP3, competition binding
  effect on affinity of truncation: no significant effect on the affinity

— article PMC3579193, “Elucidation of relaxin-3 binding interactions in the extracellular loops of RXFP3” (Frontiers in Endocrinology, 2013)
